Laboratory results reported in patent US12559496B2, “Imidazopyrimidines as modulators of IL-17” (Janssen Pharmaceutica NV, priority 2020, dated 2026).

Assays:
[1] = molecular target: IL-17A(FLAG-Tagged): IL-17RA(His-Tagged) (Homo sapiens, UniProt Q16552, K93Q); assay: IL-17A(FLAG-Tagged): IL-17RA(His-Tagged) Binding Disruption Eu-HTRF Assay; details: disruption of IL-17A/IL-17RA binding; simple average if tested more than once
Method in brief: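 Compound (22-point 2-fold series) was preincubated 1 h at rt with FLAG-IL-17A, then His-IL-17RA, Eu-anti-FLAG and D2-anti-His were added in PBS/0.01% Triton X-100 with 200 mM KF for 2 h at rt. The ratio of 665 and 620 nm intensities versus concentration was fitted to one-site competition for IC50.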

[2] = test system: IL-17A-induced G-CSF production in human normal keratinocytes (NHK); assay: NHK Assay: IL-17A-induced G-CSF production in human normal keratinocytes; format: cell-based; details: Homo sapiens, Keratinocyte, 24 h, IL-17A 5 ng/mL, 5% FBS, simple average if tested more than once
Method in brief: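 Adult normal human keratinocytes treated 24 h at 37 °C with IL-17A (5 ng/mL final) pre-incubated 1 h at rt with titrated compound; 0.2% DMSO, 5% FBS. G-CSF in supernatant measured by HTRF against a standard curve to give IC50; viability checked by CellTiter-Glo.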

[3] = seven of nine patients with moderate-to-severe HS, open-label pilot-trial (Prussick et al. 2019); cited from earlier work

Chain of UniProt Q16552 (Q16552 with tags, fused parts or gaps K93Q): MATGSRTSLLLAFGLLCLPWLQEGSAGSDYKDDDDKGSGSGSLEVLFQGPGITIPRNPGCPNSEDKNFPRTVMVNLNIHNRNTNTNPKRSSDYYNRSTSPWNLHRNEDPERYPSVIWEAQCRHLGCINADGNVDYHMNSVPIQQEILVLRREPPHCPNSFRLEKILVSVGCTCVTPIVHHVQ

| Molecule | IC50 [1] [µM] | IC50 [2] [µM] | patients achieving HiSCR [3] [%] |
| --- | --- | --- | --- |
| O=C(CC1CC(F)(F)C1)N[C@@H](c1ccn2cc([C@@H](NC(=O)c3nonc3C3CC3)C3CCC(F)(F)CC3)nc2n1)C1CC1 [Example 62, 4-Cyclopropyl-N—((S)-(7-((R)-cyclopropyl(2-(3,3-difluorocyclobutyl)acetamido)methyl)imidazo[1,2-a]pyrimidin-2-yl)(4,4-difluorocyclohexyl)methyl)-1,2,5-oxadiazole-3-carboxamide] | 0.091 | 0.12 |  |
| O=C(CC1CC(F)(F)C1)N[C@@H](c1ccn2cc([C@@H](NC(=O)c3nocc3CC(F)(F)F)C3CCC(F)(F)CC3)nc2n1)C1CC1 [Example 63, N—((S)-(7-((R)-Cyclopropyl(2-(3,3-difluorocyclobutyl)acetamido)methyl)imidazo[1,2-a]pyrimidin-2-yl)(4,4-difluorocyclohexyl)methyl)-4-(2,2,2-trifluoroethyl)isoxazole-3-carboxamide] | 0.22 | 0.64 |  |
| secukinumab |  |  | 78 |
